The results in this text go back to patent US4009206A, “N-(substituted phenyl and benzyl)abietamides” (priority 1974, dated 1977).

The test system of the test is cholesterol in blood. Put plainly: Reduction of blood cholesterol in rats fed a 1% cholesterol / 0.25% sodium cholate diet. Format: in vivo, male rats. To be noted: 3 days, control (cholesterol-administered) group = 0, normal group = 100, * 5%, ** 1% significance. The procedure:
A completely synthetic diet containing 1% of cholesterol, 0.25% of sodium cholate and 0.0003%, 0.003%, and 0.03% of the test compound is given to a group of 6 male rats having a body weight of about 50 g consecutively for 3 days, and the rats are fasted overnight. Then, the rats are decapitated and blood is collected to determine the cholesterol concentration in blood. The concentration of cholesterol in blood is measured with Technicon Autoanalyzer(Technicon Laboratory: Method File N-24a) Obtained results are shown in Table 1.
Each value shown in the Table is a relative value determined based on the supposition that the value of the control group (the cholesterol-administered group) is 0 and the value of the normal group (the non-cholesterol-administered group) is 100.

On to `Cc1cccc(C)c1NC(=O)C1(C)CCCC2(C)C3=C(CCC12)CC(C(C)C)CC3` (centres unmarked) [N-(2,6-dimethylphenyl)-Δ^8-dihydroabietamide], for which the “% Inhibition (cholesterol in blood)” value is 33% (Dose in Diet 0.0003%), 76% (Dose in Diet 0.003%) and 102% (Dose in Diet 0.03%).

As for `CC(C)C1CCC2=C(CCC3C(C)(C(=O)NCc4ccc(Cl)cc4)CCCC23C)C1` (centres unmarked) [N-(4-chlorobenzyl)-Δ^8-dihydroabietamide], the “% Inhibition (cholesterol in blood)” value reads like this: (Dose in Diet 0.003%) 9%; (Dose in Diet 0.03%) 30%.

N-(m-bromophenyl)-dihydroabietamide: the “% Inhibition (cholesterol in blood)” value turned out to be 7% (Dose in Diet 0.0003%), 23% (Dose in Diet 0.003%) and 60% (Dose in Diet 0.03%).
